Holding throughout (format): biochemical
The target of test [1] is T1, human type 1 5α-reductase (Homo sapiens, UniProt P18405).
T1 construct: made in house; host or cells: Sf9 insect cells, recombinant baculovirus; microsomes
T1 sequence (P18405 1-259): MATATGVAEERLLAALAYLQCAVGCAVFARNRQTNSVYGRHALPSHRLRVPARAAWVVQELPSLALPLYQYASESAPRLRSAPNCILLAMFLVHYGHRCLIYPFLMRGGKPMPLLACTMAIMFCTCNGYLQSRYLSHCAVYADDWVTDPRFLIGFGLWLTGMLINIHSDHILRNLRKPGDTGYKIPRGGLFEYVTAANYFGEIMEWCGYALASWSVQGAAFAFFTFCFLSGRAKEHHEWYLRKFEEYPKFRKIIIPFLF
Kind of test: Inhibition of human type 1 steroid 5α-reductase (microsomes; testosterone to DHT conversion). The protocol: (§1) Enzyme activities may be determined using microsomes derived from: 1) prostate tissue from benign prostatic hyperplasia (BPH) patients; 2) recombinant baculovirus infected SF9 cells that express human type 1 5α-reductase; or 3) recombinant baculovirus infected SF9 cells that express human type 2 5α-reductase. Microsomes were prepared by homogenization of the tissue or cells, followed by differential centrifugation of the homogenate. Microsome extracts were incubated with varying concentrations of [1,2,6,7-^3 H]-testosterone, 1 mM NADPH, and varying amounts of the compounds of formula (I,) i.e. a test compound, in buffer containing a NADPH regenerating system capable of maintaining NADPH concentrations for a period of time within the range 0.5-240 minutes. Corresponding incubations were carried out with no test compound as a control study.
(§2) For type 1 IC50 measurements, assay components except testosterone were preincubated for 10 minutes at pH 7.0, and following the addition of 100 nM testosterone the assays were allowed to proceed for 10-120 minutes. For type 2 IC50 measurements, assay components except testosterone were preincubated for 20 minutes at pH 6.0, and following the addition of 8 nM testosterone the assays were allowed to proceed for 20-40 minutes. The percentage of conversion of testosterone to DHT in the presence of test compounds compared to the corresponding conversion in the control study was estimated using high performance liquid chromatography (HPLC) with radiochemical detection.

The target in test [2] is T2, human type 2 5α-reductase (Homo sapiens, UniProt P31213).
T2 construct: made in house; host or cells: Sf9 insect cells, recombinant baculovirus; microsomes
T2 sequence (P31213 1-254): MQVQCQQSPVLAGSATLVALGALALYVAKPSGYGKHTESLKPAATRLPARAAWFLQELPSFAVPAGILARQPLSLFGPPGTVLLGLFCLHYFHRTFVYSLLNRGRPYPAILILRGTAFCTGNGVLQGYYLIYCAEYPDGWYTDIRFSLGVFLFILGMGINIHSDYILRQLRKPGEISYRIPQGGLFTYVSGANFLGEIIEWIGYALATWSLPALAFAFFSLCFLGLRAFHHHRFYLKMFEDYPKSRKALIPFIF
Kind of test: Inhibition of human type 2 steroid 5α-reductase (microsomes; testosterone to DHT conversion). The conditions noted are these: 20 min preincubation, pH 6.0, 8 nM testosterone, 20-40 min, 1 mM NADPH; read-out: IC50 Human Type 2 5AR. How it is done: as §1, §2

Another test deals with T3, Human Adrenal 3BHSD (Homo sapiens, UniProt P26439).
T3 construct: microsomes derived from human adrenal tissues; from tissue; host or cells: human adrenal tissue, microsomes
T3 sequence (P26439 1-372): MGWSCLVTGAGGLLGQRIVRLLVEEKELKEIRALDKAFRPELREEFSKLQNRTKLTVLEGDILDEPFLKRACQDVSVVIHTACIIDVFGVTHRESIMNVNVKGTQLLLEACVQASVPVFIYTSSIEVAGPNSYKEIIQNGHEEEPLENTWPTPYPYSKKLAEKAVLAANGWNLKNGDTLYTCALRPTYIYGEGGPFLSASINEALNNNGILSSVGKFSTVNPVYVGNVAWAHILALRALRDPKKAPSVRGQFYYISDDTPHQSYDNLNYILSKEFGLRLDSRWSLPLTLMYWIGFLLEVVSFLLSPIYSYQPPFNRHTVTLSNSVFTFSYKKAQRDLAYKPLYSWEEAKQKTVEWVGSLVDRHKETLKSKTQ
Kind of test: Inhibition of human adrenal 3β-hydroxy-Δ^5-steroid dehydrogenase/3-keto-Δ^5-steroid isomerase (3BHSD) (microsomes; DHEA to androstenedione conversion). The conditions noted are these: 1 mM NAD+, pH 7.5, 1 to 60 minutes. The protocol:
Enzyme activities are measured using microsomes derived from human adrenal tissues. Microsomes were prepared by homogenization of the tissue followed by differential centrifugation of the homogenate. Microsome extracts were incubated with varying concentrations of dehydroepiandrosterone (DHEA), 1 mM NAD+, and varying amounts of the compounds of Formula (I), i.e. a test compound, in pH 7.5 buffer for a period of time within the range of 1 to 60 minutes. Corresponding incubations were carried out with no test compound as a control study. The percentage of conversion of DHEA to androstenedione in the presence of test compounds compared to the corresponding conversion in the control study was estimated using HPLC with radiochemical detection.

The mark [3] stands for this setting: 10 min preincubation, pH 7.0, 100 nM testosterone, 10-120 min, 1 mM NADPH, read-out: IC50 Human Type 1 5AR.

The term IC50 denotes the point on the concentration scale where inhibition reaches its midpoint. What is called Ki is a dissociation constant, usually derived from enzyme kinetics or from competition with a known ligand.

Where two headings read alike, the source gives them in different places.

On to `C[C@]12CCC(=O)N[C@@H]1CC[C@@H]1[C@@H]2CC[C@]2(C)[C@@H](C(=O)NC3(c4ccc(Cl)cc4)CCCC3)CC[C@@H]12` [Compound 1, 17β-N-1-(4-Chlorophenyl)cyclopentylcarbamoyl-4-aza-5α-androstan-3-one], for which the 50% inhibitory concentration (IC50) was 1 to 10 nM in test [1] (setting [3]) and less than 1 nM in test [2]. The Ki on Human Adrenal 3BHSD was greater than 1000 nM.

Consider `CN1C(=O)CC[C@]2(C)[C@H]3CC[C@]4(C)[C@@H](C(=O)NC5(c6ccc(Cl)cc6)CCCC5)CC[C@H]4[C@@H]3CC[C@@H]12` [Compound 2, 17β-N-1-(4-Chlorophenyl)cyclopentylcarbamoyl-4-methyl-4-aza-5α-androstan-3-one], for which the IC50 in test [1] (setting [3]) and in test [2] was less than 1 nM throughout. In addition, at Human Adrenal 3BHSD, the Ki lay in the range of 10 to 10000 nM.

In the case of `C[C@]12C=CC(=O)N[C@@H]1CC[C@@H]1[C@@H]2CC[C@]2(C)[C@@H](C(=O)NC3(c4ccc(Cl)cc4)CCCC3)CC[C@@H]12` [Compound 3, 17β-N-1-(4-chlorophenyl)cyclopentylcarbamoyl-4-aza-5α-androst-1-en-3-one], the half-maximal inhibitory concentration (IC50) in test [1] and in test [2] was less than 1 nM each time. At Human Adrenal 3BHSD, this molecule had a Ki greater than 1000 nM.

As for `CC(C)(C)c1ccc(C2(NC(=O)[C@H]3CC[C@H]4[C@@H]5CC[C@H]6NC(=O)C=C[C@]6(C)[C@H]5CC[C@]34C)CCCC2)cc1` [Compound 4, 17β-N-1-(4-t-Butylphenyl)cyclopentylcarbamoyl-4-aza-5α-androst-1-en-3-one], the IC50 was 1 to 10 nM in test [1] (setting [3]) and less than 1 nM in test [2]. On Human Adrenal 3BHSD, the Ki is greater than 1000 nM.

On to `CC(C)(C)c1ccc(C2(NC(=O)[C@H]3CC[C@H]4[C@@H]5CC[C@H]6NC(=O)C=C[C@]6(C)[C@H]5CC[C@]34C)CCCCC2)cc1` [Compound 5, 17β-N-1-(4-t-Butylphenyl)cyclohexylcarbamoyl-4-aza-5α-androst-1-en-3-one], for which the IC50 was 1 to 10 nM in test [1] (setting [3]) and less than 1 nM in test [2]. The molecule further came in with a Ki on Human Adrenal 3BHSD greater than 1000 nM.

On to `C[C@]12C=CC(=O)N[C@@H]1CC[C@@H]1[C@@H]2CC[C@]2(C)[C@@H](C(=O)NC3(c4ccc(Cl)cc4)CCCCC3)CC[C@@H]12` [Compound 6, 17β-N-1-(4-Chlorophenyl)cyclohexylcarbamoyl-4-aza-5α-androst-1-en-3-one], for which the concentration for half-maximal inhibition (IC50) in test [1] (setting [3]) is 1 to 10 nM; in test [2], less than 1 nM. Besides, on Human Adrenal 3BHSD, the Ki was greater than 1000 nM.

For the molecule `C[C@]12C=CC(=O)N[C@@H]1CC[C@@H]1[C@@H]2CC[C@]2(C)[C@@H](C(=O)NC3(c4ccc(C(F)(F)F)cc4)CCCC3)CC[C@@H]12` [Compound 7, 17β-N-1-(4-Trifluoromethylphenyl)cyclopentylcarbamoyl-4-aza-5α-androst-1-en-3-one], the concentration for half-maximal inhibition (IC50) is 1 to 10 nM in test [1] (setting [3]) and less than 1 nM in test [2]. The molecule also showed an inhibition constant (Ki) on Human Adrenal 3BHSD greater than 1000 nM.

Consider `COc1ccc(C2(NC(=O)[C@H]3CC[C@H]4[C@@H]5CC[C@H]6NC(=O)C=C[C@]6(C)[C@H]5CC[C@]34C)CCCC2)cc1` [Compound 8, 17β-N-1-(4-Methoxyphenyl)cyclopentylcarbamoyl-4-aza-5α-androst-1-en-3-one], for which the IC50 in test [1] (setting [3]) is 1 to 10 nM; in test [2], less than 1 nM. Moreover, at Human Adrenal 3BHSD, the Ki was greater than 1000 nM.

Consider `C[C@]12C=CC(=O)N[C@@H]1CC[C@@H]1[C@@H]2CC[C@]2(C)[C@@H](C(=O)NC3(c4ccc(F)cc4)CCCC3)CC[C@@H]12` [Compound 9, 17β-N-1-(4-Fluorophenyl)cyclopentylcarbamoyl-4-aza-5α-androst-1-en-3-one], for which the IC50 in test [1] (setting [3]) is 1 to 10 nM; in test [2], less than 1 nM. This molecule also showed a Ki on Human Adrenal 3BHSD greater than 1000 nM.

With `C[C@]12C=CC(=O)N[C@@H]1CC[C@@H]1[C@@H]2CC[C@]2(C)[C@@H](C(=O)NC3(c4ccc(F)cc4)CCCCC3)CC[C@@H]12` [Compound 10, 17β-N-1-(4-Fluorophenyl)cyclohexylcarbamoyl-4-aza-5α-androst-1-en-3-one], the IC50 was 1 to 10 nM in test [1] (setting [3]) and less than 1 nM in test [2]. Further, the inhibitory constant (Ki) at Human Adrenal 3BHSD is greater than 1000 nM.

Regarding `COc1ccc(C2(NC(=O)[C@H]3CC[C@H]4[C@@H]5CC[C@H]6NC(=O)C=C[C@]6(C)[C@H]5CC[C@]34C)CCCCC2)cc1` [Compound 11, 17β-N-1-(4-Methoxyphenyl)cyclohexylcarbamoyl-4-aza-5α-androst-1-en-3-one], the IC50 was 1 to 10 nM in test [1] (setting [3]) and less than 1 nM in test [2]. On Human Adrenal 3BHSD, this molecule registered a Ki greater than 1000 nM.

On to `C[C@]12C=CC(=O)N[C@@H]1CC[C@@H]1[C@@H]2CC[C@]2(C)[C@@H](C(=O)NC3(c4ccc5c(c4)OCO5)CCCCC3)CC[C@@H]12` [Compound 12, 17β-N-1-(3,4-Methylenedioxyphenyl)cyclohexylcarbamoyl-4-aza-5α-androst-1-en-3-one], for which the 50% inhibitory concentration (IC50) in test [1] (setting [3]) is 10 to 10000 nM; in test [2], less than 1 nM. The molecule also gave a Ki on Human Adrenal 3BHSD of 10 to 10000 nM.

Turning to `CC(C)(C)c1ccc(C2(NC(=O)[C@H]3CC[C@H]4[C@@H]5CC[C@H]6NC(=O)C=C[C@]6(C)[C@H]5CC[C@]34C)CCCCCC2)cc1` [Compound 13, 17β-N-1-(4-t-Butylphenyl)cycloheptylcarbamoyl-4-aza-5α-androst-1-en-3-one], the IC50 in test [1] (setting [3]) was 1 to 10 nM; in test [2], less than 1 nM. Moreover, the Ki at Human Adrenal 3BHSD was greater than 1000 nM.

With `CC(C)(C)c1ccc(C2(NC(=O)[C@H]3CC[C@H]4[C@@H]5CC[C@H]6NC(=O)C=C[C@]6(C)[C@H]5CC[C@]34C)CCOCC2)cc1` [Compound 14, 17β-N-4-(4-t-Butylphenyl)tetrahydropyranylcarbamoyl-4-aza-5α-androst-1-en-3-one], the results for the IC50 in test [1] (setting [3]) and in test [2] were 1 to 10 nM and less than 1 nM, respectively. At Human Adrenal 3BHSD, this molecule displayed a Ki greater than 1000 nM.

Regarding `C[C@]12C=CC(=O)N[C@@H]1CC[C@@H]1[C@@H]2CC[C@]2(C)[C@@H](C(=O)NC3(c4ccc(Cl)cc4Cl)CC3)CC[C@@H]12` [Compound 15, 17β-N-1-(2,4-Dichlorophenyl)cyclopropylcarbamoyl-4-aza-5α-androst-1-en-3-one], the 50% inhibitory concentration (IC50) in test [1] (setting [3]) was 1 to 10 nM; in test [2], less than 1 nM. Further, the inhibitory constant (Ki) at Human Adrenal 3BHSD is greater than 1000 nM.

With `CCC1(CC)CC1(NC(=O)[C@H]1CC[C@H]2[C@@H]3CC[C@H]4NC(=O)C=C[C@]4(C)[C@H]3CC[C@]12C)c1ccc(C(F)(F)F)cc1` (stereo partly drawn) [Compound 16, 17β-N-1-(4-Trifluoromethylphenyl)-2,2-diethylcyclopropylcarbamoyl-4-aza-5α-androst-1-en-3-one], the results for the half-inhibitory concentration (IC50) in test [1] (setting [3]) and in test [2] were 1 to 10 nM and less than 1 nM, respectively. The Ki on Human Adrenal 3BHSD was greater than 1000 nM.

On to `CC1(C)CCC(NC(=O)[C@H]2CC[C@H]3[C@@H]4CC[C@H]5NC(=O)C=C[C@]5(C)[C@H]4CC[C@]23C)(c2ccc(C(C)(C)C)cc2)CC1` [Compound 17, 17β-N-1-(4-t-Butylphenyl)-4,4-dimethylcyclohexylcarbamoyl-4-aza-5α-androst-1-en-3-one], for which the IC50 in test [1] (setting [3]) and in test [2] was less than 1 nM each time. Besides, the Ki at Human Adrenal 3BHSD was greater than 1000 nM.

Turning to `CC(C)(C)c1ccc(C2(NC(=O)[C@H]3CC[C@H]4[C@@H]5CC[C@H]6NC(=O)C=C[C@]6(C)[C@H]5CC[C@]34C)CCC(C(C)(C)C)CC2)cc1` (stereo partly drawn) [Compound 18, 17β-N-1-(4-t-Butylphenyl)-4-t-Butylcyclohexylcarbamoyl-4-aza-5α-androst-1-en-3-one], the IC50 in test [1] (setting [3]) is 1 to 10 nM; in test [2], less than 1 nM. Also, the Ki on Human Adrenal 3BHSD was greater than 1000 nM.

These data come from patent US5817818A, “Androstenones” (Glaxo Wellcome Inc., priority 1996, dated 1998).
